Measured values reported in US7951843B2, “Amide linked modulators of γ-secretase” (Janssen Pharmaceutica N.V., priority 2007, dated 2011).

Target: γ-secretase (Homo sapiens, UniProt P49768)
Assay: Screening for γ-secretase-modulating activity in SKNBE2 cells carrying APP 695 wild type
Assay type: cell-based
Conditions: SKNBE2 cells carrying the APP 695 wild type
Method: Screening of the Compounds of the Invention for γ-Secretase-modulating Activity Screening was carried out using SKNBE2 cells carrying the APP 695—wild type, grown in DMEM/NUT-mix F12 (HAM) provided by Gibco (cat no. 31330-38) containing 5% Serum/Fe supplemented with 1% non-essential amino acids. Cells were grown to near confluency. The screening was performed using the assay as described in Citron et al (1997) Nature Medicine 3: 67.

| inhibition at 1 µM [%] | SMILES |
| --- | --- |
| 24 | CC(C)CC(C(=O)O)c1cc(NC(=O)c2cc(C(F)(F)F)cc(C(F)(F)F)c2)cc(-c2ccc(C(F)(F)F)cc2)c1 (centres unmarked) [Compound 3, 2-[5-(3,5-Bis-trifluoromethyl-benzoylamino)-4′-trifluoromethyl-biphenyl-3-yl]-4-methyl-pentanoic acid] |
| 34 | CC(C)CC(C(=O)O)c1cc(NC(=O)c2cc(F)cc(F)c2)cc(-c2ccc(C(F)(F)F)cc2)c1 (centres unmarked) [Compound 4, 2-[5-(3,5-Difluoro-benzoylamino)-4′-trifluoromethyl-biphenyl-3-yl]-4-methyl-pentanoic acid] |
